# US10238658B2, “1-pyrazolyl-3-(4-((2-anilinopyrimidin-4-yl) oxy) napththalen-1-yl) ureas as p38 MAP kinase inhibitors” (Respivert Limited, priority 2011, dated 2019)
# What was measured:
# Type in all cases: cell-based
# [1] = system: TNFα; experiment: LPS-induced TNFα release in THP-1 cells; settings: Homo sapiens, THP-1, THP1 cells
# Procedure: THP-1 cells, a human monocytic cell line, were stimulated with 3 μg/mL of LPS (from E. Coli; 0111:B4, Sigma) for 4 hr and the supernatant collected for determination of the TNFα concentration by sandwich ELISA (Duo-set, R&D systems). The inhibition of TNFα production was calculated at each concentration by comparison with vehicle control.
# [2] = system: TNFα; experiment: LPS-induced TNFα release in d-U937 cells; settings: Homo sapiens, dU937, dU937 cells; relative to 10 μg/mL BIRB796; read-out: LPS Induced Release TNFα REC50 (dU937)
# Procedure: (§1) U937 cells, a human monocytic cell line, were differentiated into macrophage-type cells by incubation with PMA (100 ng/mL) for 48 to 72 hr. Cells were pre-incubated with final concentrations of test compound for 2 hr and were then stimulated with LPS (0.1 μg/mL; from E. Coli: O111:B4, Sigma) for 4 hr. The supernatant was collected for determination of TNFα and IL-8 concentrations by sandwich ELISA (Duo-set, R&D systems). […] The relative 50% effective concentration (REC50) was determined from the resultant concentration-response curve. The inhibition of IL-8 production was calculated at each concentration of test compound by comparison with vehicle control.
# [3] = system: IL-8; experiment: LPS-induced IL-8 release in d-U937 cells; settings: Homo sapiens, dU937, dU937 cells
# Procedure: as §1
# [4] = system: IL-8; experiment: Rhinovirus-induced IL-8 release in BEAS2B cells; settings: Homo sapiens, BEAS-2B, at 0.04 μg/mL; read-out: HRV IL-8 (BEAS2B) % inhibition
# Procedure: Human rhinovirus RV16 was obtained from the American Type Culture Collection (Manassas, Va.). Viral stocks were generated by infecting Hela cells with HRV until 80% of the cells were cytopathic.
# BEAS2B cells were infected with HRV at an MOI of 5 and incubated for 2 hr at 33° C. with gentle shaking for to promote absorption. The cells were then washed with PBS, fresh media added and the cells were incubated for a further 72 hr. The supernatant was collected for assay of IL-8 concentrations using a Duoset ELISA development kit (R&D systems, Minneapolis, Minn.). […]
# [5] = system: HRV16; experiment: HRV16 induced CPE in MRC5 cells; settings: Human rhinovirus sp., HRV16, MRC5, at 0.04 μg/mL; read-out: HRV CPE (MRC5) % inhibition
# Procedure: The supernatants were aspirated, and then fresh media added followed by incubation for 4 days. Where appropriate, cells were pre-incubated with compound or DMSO for 2 hr, and the compounds and DMSO added again after washout of the virus.
# The percentage inhibition for each well was calculated. The IC50 value was calculated from the concentration-response curve generated by the serial dilutions of the test compounds.
IC50 [1] [nM],EC50 [2] [nM],IC50 [3] [nM],Compound,inhibition at 0.04 µg/mL [4] [%],inhibition at 0.04 µg/mL [5] [%]
1.2,1.7,1.8,"CC(C)(C)c1cc(NC(=O)Nc2ccc(Oc3ccnc(Nc4ccccc4)n3)c3ccccc23)n(-c2ccc(O)cc2)n1 [Example 3, 1-(3-(tert-butyl)-1-(4-hydroxyphenyl)-1H-pyrazol-5-yl)-3-(4-((2-(phenylamino)pyrimidin-4-yl)oxy)naphthalen-1-yl)urea]",100,100
3,2.2,2.3,"Cc1ccc(-n2nc(C(C)(C)C)cc2NC(=O)Nc2ccc(Oc3ccnc(Nc4cccc(F)c4)n3)c3ccccc23)cc1 [Example 15, 1-(3-(tert-butyl)-1-(p-tolyl)-1H-pyrazol-5-yl)-3-(4-((2-((3-fluorophenyl)amino)pyrimidin-4-yl)oxy)naphthalen-1-yl)urea]",100,100
121,18,23,"Cc1ccc(-n2nc(C(C)(C)C)cc2NC(=O)Nc2ccc(Oc3ccnc(Nc4ccccc4C(C)C)n3)c3ccccc23)cc1 [Example 20, 1-(3-(tert-butyl)-1-(p-tolyl)-1H-pyrazol-5-yl)-3-(4-((2-((2-isopropylphenyl)amino)pyrimidin-4-yl)oxy)naphthalen-1-yl)urea]",100,≤ 0
2.7,2,1.6,"COc1cccc(Nc2nccc(Oc3ccc(NC(=O)Nc4cc(C(C)(C)C)nn4-c4ccc(C)cc4)c4ccccc34)n2)c1 [Example 14, 1-(3-(tert-butyl)-1-(p-tolyl)-1H-pyrazol-5-yl)-3-(4-((2-((3-methoxyphenyl)amino)pyrimidin-4-yl)oxy)naphthalen-1-yl)urea]",100,100
21,35,> 1680,"Cc1ccc(Nc2nccc(Oc3ccc(NC(=O)Nc4cc(C(C)(C)C)nn4-c4ccc(C)cc4)c4ccccc34)n2)cc1 [Example 11, 1-(3-(tert-butyl)-1-(p-tolyl)-1H-pyrazol-5-yl)-3-(4-((2-(p-tolylamino)pyrimidin-4-yl)oxy)naphthalen-1-yl)urea]",100,100
225,7,15,"Cc1ccc(-n2nc(C(C)(C)C)cc2NC(=O)Nc2ccc(Oc3ccnc(Nc4ccccc4Cl)n3)c3ccccc23)cc1 [Example 6, 1-(3-(tert-butyl)-1-(p-tolyl)-1H-pyrazol-5-yl)-3-(4-((2-((2-chlorophenyl)amino)pyrimidin-4-yl)oxy)naphthalen-1-yl)urea]",–,–
4.6,3.1,2.3,"Cc1ccc(-n2nc(C(C)(C)C)cc2NC(=O)Nc2ccc(Oc3ccnc(Nc4ccccc4F)n3)c3ccccc23)cc1 [Example 4, 1-(3-(tert-butyl)-1-(p-tolyl)-1H-pyrazol-5-yl)-3-(4-((2-((2-fluorophenyl)amino)pyrimidin-4-yl)oxy)naphthalen-1-yl)urea]",100,44
6.1,16,32,"Cc1ccc(-n2nc(C(C)(C)C)cc2NC(=O)Nc2ccc(Oc3ccnc(Nc4ccc(O)cc4Cl)n3)c3ccccc23)cc1 [Example 31, 1-(3-(tert-butyl)-1-(p-tolyl)-1H-pyrazol-5-yl)-3-(4-((2-((2-chloro-4-hydroxyphenyl)amino)pyrimidin-4-yl)oxy)naphthalen-1-yl)urea]",100,≤ 0
1600,> 1620,> 1620,"Cc1ccc(-n2nc(C(C)(C)C)cc2NC(=O)Nc2ccc(Oc3ccnc(Nc4cccc(Cl)c4)n3)c3ccccc23)cc1 [Example 13, 1-(3-(tert-butyl)-1-(p-tolyl)-1H-pyrazol-5-yl)-3-(4-((2-((3-chlorophenyl)amino)pyrimidin-4-yl)oxy)naphthalen-1-yl)urea]",100,100
30,2,2.4,"Cc1ccc(-n2nc(C(C)(C)C)cc2NC(=O)Nc2ccc(Oc3ccnc(Nc4cccc(C)c4)n3)c3ccccc23)cc1 [Example 12, 1-(3-(tert-butyl)-1-(p-tolyl)-1H-pyrazol-5-yl)-3-(4-((2-(m-tolylamino)pyrimidin-4-yl)oxy)naphthalen-1-yl)urea]",100,100
45,15,15,"Cc1ccc(-n2nc(C(C)(C)C)cc2NC(=O)Nc2ccc(Oc3ccnc(Nc4cc(C)ccc4C)n3)c3ccccc23)cc1 [Example 10, 1-(3-(tert-butyl)-1-(p-tolyl)-1H-pyrazol-5-yl)-3-(4-((2-((2,5-dimethylphenyl)amino)pyrimidin-4-yl)oxy)naphthalen-1-yl)urea]",100,100
0.4,14,18,"COc1ccc(Nc2nccc(Oc3ccc(NC(=O)Nc4cc(C(C)(C)C)nn4-c4ccc(C)cc4)c4ccccc34)n2)cc1Cl [Example 28, 1-(3-(tert-butyl)-1-(p-tolyl)-1H-pyrazol-5-yl)-3-(4-((2-((3-chloro-4-methoxyphenyl)amino)pyrimidin-4-yl)oxy)naphthalen-1-yl)urea]",100,54
4.3,2,2.1,"COc1ccc(Nc2nccc(Oc3ccc(NC(=O)Nc4cc(C(C)(C)C)nn4-c4ccc(C)cc4)c4ccccc34)n2)cc1 [Example 17, 1-(3-(tert-butyl)-1-(p-tolyl)-1H-pyrazol-5-yl)-3-(4-((2-((4-methoxyphenyl)amino)pyrimidin-4-yl)oxy)naphthalen-1-yl)urea]",100,≤ 0
1.6,1,3,"Cc1ccc(-n2nc(C(C)(C)C)cc2NC(=O)Nc2ccc(Oc3ccnc(Nc4ccc(O)cc4F)n3)c3ccccc23)cc1 [Example 30, 1-(3-(tert-butyl)-1-(p-tolyl)-1H-pyrazol-5-yl)-3-(4-((2-((2-fluoro-4-hydroxyphenyl)amino)pyrimidin-4-yl)oxy)naphthalen-1-yl)urea]",100,≤ 0

Compound,IC50 [1] [nM],EC50 [2] [nM],IC50 [3] [nM],inhibition at 0.04 µg/mL [4] [%],inhibition at 0.04 µg/mL [5] [%]
"COCC(=O)Nc1cc(Oc2ccc(NC(=O)Nc3cc(C(C)(C)C)nn3-c3ccc(C)cc3)c3ccccc23)ccn1 [Reference Compound, N-(4-(4-(3-(3-tert-butyl-1-p-tolyl-1H-pyrazol-5-yl)ureido)naphthalen-1-yloxy)pyridin-2-yl)-2-methoxyacetamide, reference compound]",–,0.13,–,–,–
